# Data taken from US5298494A, “Monosaccharides having anti-proliferation and anti-inflammatory activity, compositions and uses thereof” (Greenwich Pharmaceuticals Incorporated, priority 1993, dated 1994).
# Entries after “also recorded” stand apart in the source; their conditions may differ. Like-named read-outs stand apart in the source and are kept apart here.
# Tests used:
# [1] = test system: LTB4 production by BUD-8 skin cell fibroblasts; test: LTB4 production by BUD-8 skin cell fibroblasts (radioimmunoassay); assay type: cell-based, human
# Description: (§1) The effect of the compound of the present invention on the proliferative capacity of human BUD-8 skin fibroblasts was measured with the use of a ^3 H-thymidine incorporation assay using culture conditions which were similar to those used for a Con-A blastogenesis assay, described previously. Cultured skin cells were detached from the surface of tissue culture flasks mechanically with a Teflon scraper. The cells were washed, resuspended in incubation medium and the viabilities were determined. These cells were then plated in triplicate at a density of 2×10^3 cells/0.1 ml/microtiter well for the proliferation assay and a density of 1×10^4 cells/0.1 ml/microtiter well for the assays to quantitate PGE2 and LTB4. To these cells was added incubation medium containing indomethacin to inhibit prostaglandin production, or nordihydroguaiaretic acid (NDGA) to inhibit leukotriene production (positive controls).
# After 18 hours of culture, samples of the BUD-8 skin cell supernatants were collected from one set of microtiter plates and frozen until assayed for PGE2 or for LTB4 content using the radioimmunoassays described below.
# Levels of LTB4 in aliquots of BUD-8 skin cell cultures supernatants were quantitated by radioimmunoassay (New England Nuclear). Briefly, into each polyproplyene tube were mixed 0.1 ml anti-LTB4, 0.1. ml ^3 H-LTB4 and 0.1 ml LTB4 standard or LTB4 containing sample. The BUD-8 skin cell culture supernatants were used directly in the radioimmunoassay. Tubes were refrigerated overnight. A charcoal solution (0.5 ml of 0.5% charcoal Norit A) was added and each tube was centrifuged. The radioactivity in the supernatant was then counted in a liquid scintillation counter.
# [2] = test system: T lymphocytes (normal mouse spleen cells) stimulated with ConA; test: Mouse Spleen Cell ConA Blastogenesis Assay; assay type: cell-based, mouse (C57Bl/6)
# BUD-8 skin cells = test: Morphological examination of BUD-8 cultures for compound-induced toxicity; assay type: cell-based, human
# Description: (§2) After 3 days of culture, 1 uCi ^3 H-thymidine was added in a 50 ul volume to each culture well of the microtiter plates. Eighteen hours later, each of the BUD-8 cultures was examined morphologically for evidence of compound-induced toxicity such as cell rounding or granularity. The thymidine-pulsed cells were then precipitated and the amount of ^3 H-thymidine incorporated was counted in a liquid scintillation counter.
# [3] = test system: BUD-8 human skin fibroblasts; test: Fibroblast assay: proliferation of BUD-8 skin cell fibroblasts; assay type: cell-based
# Description: The human skin cell fibroblast line, BUD-8 was obtained prior to each assay from the American Type Culture Collection. This is a fibroblast-like cell line which was originally derived from the normal skin of a person.
# BUD-8 cell cultures were expanded for use in 25 cm^2 flasks at 37° C. in an atmosphere of 5% CO2 in air. At approximately 4-5 five day intervals, or when confluence was reached, the cells were passaged. This was accomplished by detaching the cells with a Teflon scraper, washing and reseeding the cells at a lower density into fresh tissue culture flasks.
# as §1, §2
# The concentrations of the compounds of the invention which were used in these assays were:
# The incubation medium used for culturing the BUD-8 cells was RPMI-1640 medium containing 10% fetal bovine serum, 100 ug/ml streptomycin, 100 U/ml penicillin, 0.2M Hepes buffer solution, 5×10^-5 M 2-mercaptoethanol and 2 mM glutamine.
# [4] = ConA 1 ug/ml, compound 100 ug/ml
# [5] = ConA 1 ug/ml, compound 300 ug/ml
# [6] = ConA 1 ug/ml, compound 750 ug/ml
# [7] = ConA 4 ug/ml, compound 300 ug/ml
# [8] = ConA 4 ug/ml, compound 750 ug/ml
structure (smiles),measurement,setting,value
CCCCCCCOCCCO[C@@H]1[C@H]2OC(C)(C)O[C@H]2O[C@@H]1[C@H](O)CO [IIg],concentrations with significantly decreased LTB4 levels,[1],1 to 100 µg/mL
same,LTB4 in supernatant (Table XIII),[1]; 1 ug/ml,32.2 ± 1.9 pg LTB4 /1000 ul supernatant
same,calculated LTB4 produced/10^5 BUD-8 cells,[1]; 1 ug/ml,619 pg per 10^5 cells
same,LTB4 in supernatant (Table XIII),[1]; 10 ug/ml,28.8 ± 1.4 pg LTB4 /1000 ul supernatant
same,calculated LTB4 produced/10^5 BUD-8 cells,[1]; 10 ug/ml,550 pg per 10^5 cells
same,LTB4 in supernatant (Table XIII),[1]; 25 ug/ml,23.7 ± 0.5 pg LTB4 /1000 ul supernatant
same,calculated LTB4 produced/10^5 BUD-8 cells,[1]; 25 ug/ml,447 pg per 10^5 cells
same,LTB4 in supernatant (Table XIII),[1]; 100 ug/ml,27.3 ± 2.6 pg LTB4 /1000 ul supernatant
same,calculated LTB4 produced/10^5 BUD-8 cells,[1]; 100 ug/ml,520 pg per 10^5 cells
same,LTB4 in supernatant (Table XIII),[1]; 300 ug/ml,24.5 ± 2.8 pg LTB4 /1000 ul supernatant
same,LTB4 in supernatant (Table XIII),[1]; 750 ug/ml,19.3 ± 1.9 pg LTB4 /1000 ul supernatant
same,inhibition at 1 µg/mL,"[1]; Homo sapiens, Fibroblast, 18 h, 1 ug/ml, read-out: % Effect on LTB4 production",17%
same,inhibition at 10 µg/mL,"[1]; Homo sapiens, Fibroblast, 18 h, 10 ug/ml, read-out: % Effect on LTB4 production",26%
same,inhibition at 25 µg/mL,"[1]; Homo sapiens, Fibroblast, 18 h, 25 ug/ml, read-out: % Effect on LTB4 production",39%
same,inhibition at 100 µg/mL,"[1]; Homo sapiens, Fibroblast, 18 h, 100 ug/ml, read-out: % Effect on LTB4 production",30%
same,inhibition at 300 µg/mL,"[1]; Homo sapiens, Fibroblast, 18 h, 300 ug/ml, read-out: % Effect on LTB4 production",37%
same,inhibition at 750 µg/mL,"[1]; Homo sapiens, Fibroblast, 18 h, 750 ug/ml, read-out: % Effect on LTB4 production",50%
same,Blastogenic response of normal spleen cells to Con-A,"[2]; ConA 1 ug/ml, compound 1 ug/ml","91,958 ± 15,723 cpm"
same,Blastogenic response of normal spleen cells to Con-A,"[2]; ConA 1 ug/ml, compound 10 ug/ml","100,734 ± 25,985 cpm"
same,Blastogenic response of normal spleen cells to Con-A,"[2]; ConA 1 ug/ml, compound 25 ug/ml","108,874 ± 15,534 cpm"
same,"% change from control, ConA blastogenic response",[2]; [4],-67%
same,Blastogenic response of normal spleen cells to Con-A,[2]; [4],"23,806 ± 1,727 cpm"
same,"% change from control, ConA blastogenic response",[2]; [5],-84%
same,Blastogenic response of normal spleen cells to Con-A,[2]; [5],"11,212 ± 15,288 cpm"
same,"% change from control, ConA blastogenic response",[2]; [6],-82%
same,Blastogenic response of normal spleen cells to Con-A,[2]; [6],"12,807 ± 9,049 cpm"
same,Blastogenic response of normal spleen cells to Con-A,"[2]; ConA 4 ug/ml, compound 1 ug/ml","174,764 × 10^3 cpm"
same,Blastogenic response of normal spleen cells to Con-A,"[2]; ConA 4 ug/ml, compound 10 ug/ml","168,131 ± 14,911 cpm"
same,Blastogenic response of normal spleen cells to Con-A,"[2]; ConA 4 ug/ml, compound 25 ug/ml","216,784 ± 27,862 cpm"
same,Blastogenic response of normal spleen cells to Con-A,"[2]; ConA 4 ug/ml, compound 100 ug/ml","31,073 ± 10,784 cpm"
same,"% change from control, ConA blastogenic response",[2]; [7],-91%
same,Blastogenic response of normal spleen cells to Con-A,[2]; [7],"8,268 ± 322 × 10^3 cpm"
same,"% change from control, ConA blastogenic response",[2]; [8],-79%
same,Blastogenic response of normal spleen cells to Con-A,[2]; [8],"20,265 ± 12,455 cpm"
same,inhibition at 1 µg/mL,"[2]; Mus musculus, T-lymphocyte, ConA 1 ug/ml, compound 1 ug/ml, read-out: % change from control, ConA blastogenic response",-27%
same,inhibition at 10 µg/mL,"[2]; Mus musculus, T-lymphocyte, ConA 1 ug/ml, compound 10 ug/ml, read-out: % change from control, ConA blastogenic response",-39%
same,inhibition at 25 µg/mL,"[2]; Mus musculus, T-lymphocyte, ConA 1 ug/ml, compound 25 ug/ml, read-out: % change from control, ConA blastogenic response",-51%
same,inhibition at 100 µg/mL,"[2]; Mus musculus, T-lymphocyte, ConA 1 ug/ml, compound 100 ug/ml, read-out: % change from control, ConA blastogenic response",67%
same,inhibition at 300 µg/mL,"[2]; Mus musculus, T-lymphocyte, ConA 1 ug/ml, compound 300 ug/ml, read-out: % change from control, ConA blastogenic response",84%
same,inhibition at 750 µg/mL,"[2]; Mus musculus, T-lymphocyte, ConA 1 ug/ml, compound 750 ug/ml, read-out: % change from control, ConA blastogenic response",82%
same,inhibition at 1 µg/mL,"[2]; Mus musculus, T-lymphocyte, ConA 4 ug/ml, compound 1 ug/ml, read-out: % change from control, ConA blastogenic response",-80%
same,inhibition at 10 µg/mL,"[2]; Mus musculus, T-lymphocyte, ConA 4 ug/ml, compound 10 ug/ml, read-out: % change from control, ConA blastogenic response",-73%
same,inhibition at 25 µg/mL,"[2]; Mus musculus, T-lymphocyte, ConA 4 ug/ml, compound 25 ug/ml, read-out: % change from control, ConA blastogenic response",-123%
same,inhibition at 300 µg/mL,"[2]; Mus musculus, T-lymphocyte, ConA 4 ug/ml, compound 300 ug/ml, read-out: % change from control, ConA blastogenic response",91%
same,inhibition at 750 µg/mL,"[2]; Mus musculus, T-lymphocyte, ConA 4 ug/ml, compound 750 ug/ml, read-out: % change from control, ConA blastogenic response",79%
same,"cell toxicity in BUD-8 cultures, in words",BUD-8 skin cells,Evidence of cell toxicity was observed at the two highest concentrations of compound tested; also recorded: Cell toxicity was again observed in cultures which included 300 and 750 ug/ml of the compound; also recorded: Compound induced cell toxicity was observed only at the highest dose level tested
same,^3 H-Thymidine uptake by BUD-8 skin cells,[3]; 1 ug/ml,"6,096 ± 1,352 cpm"
same,^3 H-Thymidine uptake by BUD-8 skin cells,[3]; 10 ug/ml,"3,552 ± 994 cpm"
same,^3 H-Thymidine uptake by BUD-8 skin cells,[3]; 25 ug/ml,"4,207 ± 450 cpm"
same,^3 H-Thymidine uptake by BUD-8 skin cells,[3]; 100 ug/ml,"4,117 ± 481 cpm"
same,^3 H-Thymidine uptake by BUD-8 skin cells,[3]; 300 ug/ml,"2,233 ± 244 cpm"
same,^3 H-Thymidine uptake by BUD-8 skin cells,[3]; 750 ug/ml,"3,898 ± 1,692 cpm"
same,inhibition at 1 µg/mL,"[3]; Homo sapiens, Skin fibroblast, 1 ug/ml, read-out: % Effect on BUD-8 proliferation",1%
same,inhibition at 10 µg/mL,"[3]; Homo sapiens, Skin fibroblast, 10 ug/ml, read-out: % Effect on BUD-8 proliferation",42%
same,inhibition at 25 µg/mL,"[3]; Homo sapiens, Skin fibroblast, 25 ug/ml, read-out: % Effect on BUD-8 proliferation",32%
same,inhibition at 100 µg/mL,"[3]; Homo sapiens, Skin fibroblast, 100 ug/ml, read-out: % Effect on BUD-8 proliferation",33%
same,inhibition at 300 µg/mL,"[3]; Homo sapiens, Skin fibroblast, 300 ug/ml, read-out: % Effect on BUD-8 proliferation",64%
same,inhibition at 750 µg/mL,"[3]; Homo sapiens, Skin fibroblast, 750 ug/ml, read-out: % Effect on BUD-8 proliferation",37%
